Toxic doses and inconclusive results are not listed. The calls were made as follows: active = survival T/C of 150% or more; inactive = T/C below 125% in these data.
System: CD2F1 mice, L1210 leukemia ip, survival T/C
Experiment: NCI In Vivo Anticancer Drug Screen. Data for tumor model L1210 Leukemia (intraperitoneal) in CD2F1 (CDF1) mice
Settings: endpoint: mean survival time, higher = longer survival
Outline: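 Each value reflects a quotient of treated over vehicle control outcomes in mice with a transplanted tumor.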

Measured: T/C

[CH3][Sn]([CH3])([Br])[CH2]CCBr
inactive: dose: 0.39 mg/kg/injection, schedule: Q01DX009 (ip), vehicle: saline with Tween-80 100 % of control | dose: 0.39 mg/kg/injection, schedule: Q01DX009 (ip), vehicle: saline 90 % of control | dose: 0.78 mg/kg/injection, schedule: Q01DX009 (ip), vehicle: saline with Tween-80 100 % of control | dose: 0.78 mg/kg/injection, schedule: Q01DX009 (ip), vehicle: saline 90 % of control | dose: 1.56 mg/kg/injection, schedule: Q01DX009 (ip), vehicle: saline 97 % of control

CCOCCC(=O)NCc1ccccc1
inactive: dose: 100.0 mg/kg/injection, schedule: Q04DX003 (ip), vehicle: saline with Tween-80 100 % of control | dose: 200.0 mg/kg/injection, schedule: Q04DX003 (ip), vehicle: saline with Tween-80 98 % of control | dose: 400.0 mg/kg/injection, schedule: Q04DX003 (ip), vehicle: saline with Tween-80 102 % of control

CCCC1=NC(C)(C)CO1
inactive: dose: 100.0 mg/kg/injection, schedule: Q04DX003 (ip), vehicle: saline 92 % of control | dose: 200.0 mg/kg/injection, schedule: Q04DX003 (ip), vehicle: saline 94 % of control | dose: 400.0 mg/kg/injection, schedule: Q04DX003 (ip), vehicle: saline 105 % of control

CCCCCC[C@@H](O)[C@@H]1C2=C(C[C@H]([C@H](O)[C@@H]3CC=CC(=O)O3)CC3=C(C(=O)OC3=O)[C@@H]1O)C(=O)OC2=O
inactive: dose: 0.13 mg/kg/injection, schedule: Q01DX001 (ip), vehicle: saline 97 % of control | dose: 0.25 mg/kg/injection, schedule: Q01DX001 (ip), vehicle: saline 95 % of control | dose: 0.5 mg/kg/injection, schedule: Q01DX001 (ip), vehicle: saline 96 % of control | dose: 1.0 mg/kg/injection, schedule: Q01DX001 (ip), vehicle: saline 96 % of control | dose: 2.0 mg/kg/injection, schedule: Q01DX001 (ip), vehicle: saline 96 % of control

COc1cc2cc(c1Cl)N(C)C(=O)CC(OC(=O)CC(C)C)C1(C)OC1C(C)C1CC(O)(NC(=O)O1)C(OC)/C=C/C=C(C)C2 (centres undefined)
inactive: dose: 3.8 micrograms/kg/injection, schedule: Q01DX009 (ip), vehicle: saline + alcohol 103 % of control | dose: 7.5 micrograms/kg/injection, schedule: Q01DX009 (ip), vehicle: saline + alcohol 103 % of control | dose: 15.0 micrograms/kg/injection, schedule: Q01DX009 (ip), vehicle: saline + alcohol 112 % of control | dose: 30.0 micrograms/kg/injection, schedule: Q01DX009 (ip), vehicle: saline + alcohol 112 % of control | dose: 60.0 micrograms/kg/injection, schedule: Q01DX009 (ip), vehicle: saline + alcohol 111 % of control

CN(C)c1ccc(N2C(N)=NC(N)=NC2(C)C)cc1
inactive: dose: 25.0 mg/kg/injection, schedule: Q01DX001 (ip), vehicle: saline 101 % of control | dose: 50.0 mg/kg/injection, schedule: Q01DX001 (ip), vehicle: saline 101 % of control | dose: 100.0 mg/kg/injection, schedule: Q01DX001 (ip), vehicle: saline 98 % of control
